From patent US20040209841A1, “Association compound of trehalose or maltitol with metal ion compound” (priority 2001, published 2004)
Where two headings read alike, the source gives them in different places. Values belong to the molecule of their own block, whether it stands above or below them.

Columns and labels:
[1] = Suppressing effect on the deterioration of ascorbic acid under the presence of metal ion (degree of coloring); assay type: physicochemical; details: 50° C.; for Degree of coloring (Abs. at 420 nm) Preserved for 96 hrs: 14.8 mM AsA + 10 mM FeCl2 + 100 mM saccharide
Description: L-Ascorbic acid deteriorates rapidly by the oxidative degradation in the presence of iron and copper ions and causes the browning. The effects of trehalose and maltitol on the phenomenon were investigated as follows. Ten kinds of aqueous solutions having respective compositions described in Table 12 were prepared. Aqueous solutions of L-ascorbic acid alone or L-ascorbic acid and metal ion compounds were used as controls. The test solutions were prepared by adding trehalose or maltitol to the control solutions. Ten milliliters of each of these test and control solutions were placed into different 20 ml-vials and sealed. The vials were preserved at 50° C. The control and test solutions, containing ferrous chloride, and those containing ferric chloride or copper sulfate were preserved for 96 hours and 40 hours, respectively. After the preservation, the degree of coloring of each solution was measured. In the case of a control solution containing L-ascorbic acid alone, the degrees of coloring were measured at the preservation periods of 40 hours and 96 hours. The absorbance at 420 nm (within the visible light range) of each sample was measured as the degree of coloring.

[2] = pH 3.5
Description: Effects of trehalose, maltitol, and other saccharides on the solubilities of calcium-organic acid salts were investigated as follows. […] Successively, five grams of commercially available calcium DL-lactate pentahydrate or calcium gluconate monohydrate, used as calcium-organic acid salts, were added to each saccharide solution, followed by suspension. Thereafter, the pH of each solution was adjusted to 3.5, and the solution was filled up to give a volume of 50 ml with deionized water. After stirring at 25° C. for 16 hours, insoluble calcium-organic acid salts were removed by centrifuging (15,000 rpm for 30 minutes). The pHs of the resulting supernatants were measured. The calcium concentrations of the supernatant were measured using an atomic adsorption photometer described in Experiment 5. The solution prepared with no saccharide was also measured for calcium concentration in the same manner as control.

[3] = Suppressing effect on the oxidation of ferrous ion (Nitroso-DMAP method); assay type: physicochemical; details: for Amount of Fe2+ ion (mg/ml) After light-irradiation: 37° C. four hours, light of about 9,000 luxes, 5% (w/v) saccharide; for Amount of Fe2+ ion (mg/ml) Before light-irradiation: ferrous chloride 1% (w/v) as ferrous ion + 5% (w/v) saccharide
Description: Generally, ferrous ion (divalent, Fe^2+) and ferric ion (trivalent, Fe^3+) are known as ions of iron element. Ferrous ion is easily oxidized with light or heat and converted to ferric ion. Effects of trehalose and maltitol on the phenomenon were investigated as follows. An aqueous solution, comprising ferrous chloride (FeCl2) tetrahydrate corresponding to the amount of 1% (w/v) as ferrous ion, and comprising trehalose or maltitol corresponding to the amount of 5% (w/v), d.s.b., was prepared as a test solution. While, a solution, comprising ferrous chloride only with the same concentration to the test solution, was prepared as a control solution. After preparing the test and control solutions, small portions of which were sampled respectively, and the amount of ferrous ion was measured by the Nitroso-DMAP method described later. Successively, 10 ml each of the test and control solution was placed separately in a 20 ml-vial and sealed. After preserving these vials at 37° C. for four hours with irradiating a light of about 9,000 luxes, the amount of ferrous ion in each solution was measured by the Nitroso-DMAP method. Measurement by the Nitroso-DMAP method was carried out as follows. After diluting the test or control solution accurately by 100-fold, 0.5 ml of the dilute was placed in a 50 ml-volumetric flask. […] After the above procedure, the absorbance at 750 nm (within the visible light range) of the solution was measured. The standard solutions, prepared by diluting stepwise a ferrous chloride solution with known concentration, were used for the measurement in the same manner to obtain a standard curve for quantitative analysis. The amount of ferrous ion of the test or the control solution was determined with the standard curve.

[4] = Change of solubility of metal ion compounds by the association with trehalose (precipitation of crystal); assay type: physicochemical
Description: The changes of solubility in water of trehalose and/or metal ion compounds were examined under coexistence of trehalose and metal ion compounds. […] Solutions prepared by dissolving the same amount of trehalose only or that of metal ion compounds only were prepared as controls. After dissolving the contents completely, all the beakers were allowed to stand at room temperature (25° C.) for 24 hours. Successively, precipitation of crystals was judged by macroscopic observation. In the case of precipitating crystals, the formed crystals were collected and analyzed for those component(s) by conventional method.

[5] = Hygroscopicity (deliquescence) test; assay type: physicochemical; details: for Moisture content/g-sample: 25° C.
Description: A dried bittern powder was prepared by drying bittern solution in vacuo at 60° C. for 15 hours, pulverized, and dried in a usual manner for use as a control. The moisture content (weight of moisture per one gram of the sample) of each sample was measured by conventional drying loss method. […] The weight of the content in each cup was measured at the initiation of preservation (0 day preservation), and 1, 2, 4, and 7 days after the initiation. The amount of moisture per one gram of each at sample after 1 to 7 days preservation was calculated based on the assumption that the increased amount measured to that of 0 day preservation was the amount of moisture absorbed by each sample.

[6] = 14.8 mM AsA + 10 mM CuSO4 + 100 mM saccharide
[7] = 14.8 mM AsA + 10 mM FeCl3 + 100 mM saccharide
[8] = 0.1 mole metal ion compound only, 30 grams of water, 25° C. 24 hours

Structure (SMILES): O.O.[Ca+2].[Cl-].[Cl-] [CaCl2 · 2H2O, calcium chloride dihydrate]
moisture content (weight of moisture per one gram of the sample) ([5]; before preservation, drying loss method): 0.245 g | Moisture content/g-sample ([5]; relative humidity 33.0%, 0 day): 0.245 g | Moisture content/g-sample ([5]; relative humidity 33.0%, 1 day): 0.289 g | Moisture content/g-sample ([5]; relative humidity 33.0%, 2 days): 0.312 g | Moisture content/g-sample ([5]; relative humidity 33.0%, 3 days): 0.343 g | Moisture content/g-sample ([5]; relative humidity 33.0%, 7 days): 0.364 g | Moisture content/g-sample ([5]; relative humidity 52.8%, 0 day): 0.245 g | Moisture content/g-sample ([5]; relative humidity 52.8%, 1 day): 0.319 g | Moisture content/g-sample ([5]; relative humidity 52.8%, 2 days): 0.359 g | Moisture content/g-sample ([5]; relative humidity 52.8%, 3 days): 0.405 g | Moisture content/g-sample ([5]; relative humidity 52.8%, 7 days): 0.430 g

Structure (SMILES): O.O.O.O.O.O.[Cl][Ni][Cl] [Nickel chloride, nickel chloride hexahydrate]
Precipitation of crystal In the absence of trehalose [4]: Precipitated | Precipitation of crystal In the presence of trehalose [4]: None

Structure (SMILES): O.O.O.O.[Cl][Mn][Cl] [Manganese chloride, manganese chloride tetrahydrate]
Precipitation of crystal In the presence of trehalose ([4]; 0.1 mole metal ion compound + 0.1 mole trehalose, 30 grams of water, room temperature (25° C.) 24 hours, macroscopic observation): None | Precipitation of crystal In the absence of trehalose [4, 8]: Precipitated

Results, then the molecule that gave them:

Degree of coloring (Abs. at 420 nm) Preserved for 40 hrs [1, 6]: 0.258 | Degree of coloring (Abs. at 420 nm) Preserved for 96 hrs [1]: 0.291 | Degree of coloring (Abs. at 420 nm) Preserved for 40 hrs [1, 7]: 0.198 | Relative conc. (%), Calcium gluconate [2]: 128% | Relative conc. (%), Calcium lactate [2]: 123% | increase of calcium concentration in the supernatant in comparison with control, calcium gluconate [2]: 28% | increase of calcium concentration in the supernatant in comparison with control, calcium lactate [2]: 23% | Amount of Fe2+ ion (mg/ml) After light-irradiation [3]: 4.3 mg/mL | Amount of Fe2+ ion (mg/ml) Before light-irradiation [3]: 10.2 mg/mL
Structure (SMILES): OC[C@@H](O)[C@@H](O[C@H]1O[C@H](CO)[C@@H](O)[C@H](O)[C@H]1O)[C@H](O)[C@@H](O)CO [Maltitol, maltitol]

Degree of coloring (Abs. at 420 nm) Preserved for 40 hrs [1, 6]: 0.311 | Degree of coloring (Abs. at 420 nm) Preserved for 96 hrs [1]: 0.380 | Degree of coloring (Abs. at 420 nm) Preserved for 40 hrs [1, 7]: 0.226 | Relative conc. (%), Calcium gluconate ([2]; 16 h, 100 mg/ml): 112% | Relative conc. (%), Calcium lactate ([2]; 16 h, 100 mg/ml): 129% | increase of calcium concentration in the supernatant in comparison with control, calcium gluconate ([2]; 16 h, 100 mg/ml): 12% | increase of calcium concentration in the supernatant in comparison with control, calcium lactate ([2]; 16 h, 100 mg/ml): 29% | Amount of Fe2+ ion (mg/ml) After light-irradiation [3]: 4.4 mg/mL | Amount of Fe2+ ion (mg/ml) Before light-irradiation [3]: 10.1 mg/mL
Structure (SMILES): OC[C@H]1O[C@H](O[C@H]2O[C@H](CO)[C@@H](O)[C@H](O)[C@H]2O)[C@H](O)[C@@H](O)[C@@H]1O [Trehalose, α,α-trehalose]

Precipitation of crystal In the absence of trehalose [4, 8]: Precipitated
Structure (SMILES): O.O.O.O.[Cl][Fe][Cl] [Ferrous chloride, ferrous chloride tetrahydrate]

Precipitation of crystal In the absence of trehalose [4, 8]: Precipitated
Structure (SMILES): [Cl][Cu] [Cuprous chloride, cuprous chloride dihydrate]
